Among the data in patent US4104390A, “Thieno [2,3-c] and [3,2-c] pyridines” (Parcor, priority 1976, dated 1978) are inhibition and inhibition in vivo values, retold here.

For assay [1], the system named is A.D.P.-induced blood-platelet aggregation. Nature of the assay: A.D.P.-induced blood-platelet aggregation. The following applies: Rattus norvegicus, po, rats, 100 mg/kg orally, 3 hours after treatment, 10 μM A.D.P. solution, with respect to control group. The format is in vivo, Wistar rats. As to the method:
(§1) Blood is taken from the jugular vein of Wistar rats. From this citrated blood, and after centrifugation, is reconstituted a plasma containing 600,000 ± 20,000 blood-platelets per ml which is used in all aggregation determinations.
(§2) 0.4 ml plasma is placed in a siliconized tube provided with a magnet bar, also siliconized. The tube is introduced into an aggregometer coupled with an apparatus for recording optical density variations. When light transmission has reached a stable value, 0.5 ml of a solution containing 10 μM A.D.P. (Adenosine-Di-Phosphate) is introduced into the tube.
(§3) Blood-platelet aggregation causes an increase of light transmission followed by a decrease subsequent to the deaggregation phase.
(§4) The maximal optical density variation thus determined characterizes the intensity of the aggregation.
(§5) Different groups of 20 rats are used, each group being orally administered a test derivative at a dosage of 100 mg/kg.

The subject of assay [2] is carrageenin-induced localized edema. Nature of the assay: Carrageenin-induced localized edema method. The format is in vivo. The following applies: Rattus norvegicus, po, rats, 100 mg/kg orally at -1, 0, 1 and 2.5 hours. As for the experimental part:
(a) Carrageenin-induced localized edema method
0.1 ml of a 1% carrageenin solution is injected in the metatarsal flexor muscles of the right hind limb of rats at time 0. The animals of the treated group are additionally orally administered 100 mg/kg of the test derivative, respectively one hour prior to injection of the phlogogenic agent, simultaneously with said injection, and then 1 hour and 2.5 hours thereafter. The determinations effected by means of a ROCH micrometer at times 0, 1 hour, 2 hours, 3 hours and 5 hours after carrageenin administration make it possible to determine, as a function of time, the percent anti-inflammatory activity with respect to the reference group.
In general terms: In the carrageenan paw model, swelling and tenderness develop within hours.

In assay [3] the test system is collagen-induced blood-platelet aggregation. Nature of the assay: Collagen-induced blood-platelet aggregation. The format is in vivo, Wistar rats. The following applies: Rattus norvegicus, po; rats, 100 mg/kg orally, 3 hours after treatment, collagen (bovine tendon extract), with respect to control group; read-out: Percent inhibition of blood-platelet aggregation, Collagen. As for the experimental part: as §1, §2, §3, §4
The A.D.P. solution is substituted with a collagen solution (bovine tendon extract).
as §5

The subject of assay [4] is ovalbumen-induced systemic edema. Nature of the assay: Ovalbumen-induced systemic edema method. The following applies: Rattus norvegicus, po, rats, 100 mg/kg orally 1 hour before and with ovalbumen. The format is in vivo. As to the method: (b) Ovalbumen-induced systemic edema method
Simultaneous injection of 1 ml ovalbumen and 0.5 ml of a 1% aqueous Evans Blue solution is effected in rats. On the other hand, the animals of the treated group are administered orally 100 mg/kg of the test derivative one hour prior to ovalbumen administration and simultaneously with said administration. The intensity of the phenomenon thus induced is scored according to a scale from 1 to 5 depending on the progress of the inflammatory syndrome. The mean intensity of the edem and the percent decrease of the edema reaction with respect to the control group are thus determined as a function of time.

The mark [5] stands for this setting: 1 hour after carrageenin, read-out: Percent anti-inflammatory activity after 1 hour.
The mark [6] stands for this setting: 2 hours after carrageenin, read-out: Percent anti-inflammatory activity after 2 hours.
[7] abbreviates: 3 hours after carrageenin, read-out: Percent anti-inflammatory activity after 3 hours.
The mark [8] stands for this setting: 5 hours after carrageenin, read-out: Percent anti-inflammatory activity after 5 hours.
Setting [9] is: 2 hours after ovalbumen, read-out: Percent anti-inflammatory activity after 2 hours.
[10] abbreviates: 3 hours after ovalbumen, read-out: Percent anti-inflammatory activity after 3 hours.
[11] abbreviates: read-out: Percent inhibition of blood-platelet aggregation, A.D.P.

Like-named read-outs stand apart in the source and are kept apart here.

In general, inhibition refers to how much of the control response was suppressed. In the case of `CC1NCc2ccsc2C1c1ccccc1` (centres unmarked) [derivative n°2, 6-Methyl-7-phenyl-4,5,6,7-tetrahydro-thieno[3,2-c]pyridine], the inhibition at 100 mg/kg is 62.4% in assay [1] (3 h, heading: Percent inhibition of blood-platelet aggregation) and 92.7% in assay [3]. The inhibition in vivo at 100 mg/kg in assay [2] (setting [5]) amounted to 42%; in assay [2] (setting [6]), 48%; in assay [2] (setting [7]), 51%; in assay [2] (setting [8]) it was 54%; in assay [4] (setting [9]), 42%; in assay [4] (setting [10]), 50%.
As for `c1ccc(C2CNCc3ccsc32)cc1` (centres unmarked) [derivative n°4, 7-Phenyl-4,5,6,7-tetrahydro-thieno[3,2-c]pyridine], the inhibition at 100 mg/kg was found to be 64% in assay [1] (setting [11]) and 95% in assay [3]. Also, the inhibition in vivo at 100 mg/kg is 38% in assay [2] (setting [5]); 44% in assay [2] (setting [6]); 49% in assay [2] (setting [7]); 53% in assay [2] (setting [8]); 54% in assay [4] (setting [9]); 62% in assay [4] (setting [10]).
For `CN1Cc2ccsc2C(c2ccccc2)C1` (centres unmarked) [derivative n°6, 5-Methyl-7-phenyl-4,5,6,7-tetrahydro-thieno[3,2-c]pyridine], the inhibition at 100 mg/kg came out at 61.7% in assay [1] (setting [11]) and 90.4% in assay [3]. In addition, the inhibition in vivo at 100 mg/kg in assay [2] (setting [5]) was determined as 45%; in assay [2] (setting [6]) it was 52%; in assay [2] (setting [7]), 56%; in assay [2] (setting [8]) it was 58%; in assay [4] (setting [9]), 47%; in assay [4] (setting [10]) it was 55%.
Consider `COc1ccc(C2CN(Cc3ccccc3Cl)Cc3sccc32)cc1` (centres unmarked) [derivative n°7, 6-o-Chlorobenzyl-4-p-methoxyphenyl-4,5,6,7-tetrahydro-thieno[2,3-c]pyridine], for which the values for the inhibition at 100 mg/kg in assay [1] (setting [11]) and in assay [3] were 61.5% and 90.7%, respectively. In addition, the inhibition in vivo at 100 mg/kg in assay [2] (setting [5]) is 44%; in assay [2] (setting [6]), 50%; in assay [2] (setting [7]), 54%; in assay [2] (setting [8]), 59%; in assay [4] (setting [9]), 52%; in assay [4] (setting [10]), 59%.
In the case of `N#Cc1ccccc1CN1Cc2sccc2C(c2ccccc2)C1` (centres unmarked) [derivative n°8, 6-o.Cyanobenzyl-4-phenyl-4,5,6,7-tetrahydro-thieno[2,3-c]pyridine], the figures for the inhibition at 100 mg/kg in assay [1] (setting [11]) and in assay [3] were 63.2% and 92.5%, respectively. Besides, the inhibition in vivo at 100 mg/kg in assay [2] (setting [5]) came to 42%; in assay [2] (setting [6]), 49%; in assay [2] (setting [7]), 53%; in assay [2] (setting [8]) it was 56%; in assay [4] (setting [9]) it was 46%; in assay [4] (setting [10]), 54%.
Consider `Clc1ccc(C2CN(Cc3ccccc3Cl)Cc3sccc32)cc1` (centres unmarked) [derivative n°9, 6-o.Chlorobenzyl-4-p.chlorophenyl-4,5,6,7-tetrahydro-thieno[2,3-c]pyridine], for which the inhibition at 100 mg/kg in assay [1] (setting [11]) came out at 64.3%; in assay [3], 93.8%. In addition, the inhibition in vivo at 100 mg/kg in assay [2] (setting [5]) turned out to be 44%; in assay [2] (setting [6]), 52%; in assay [2] (setting [7]) it was 55%; in assay [2] (setting [8]), 57%; in assay [4] (setting [9]), 48%; in assay [4] (setting [10]), 56%.
Take `Cc1ccc(C2CN(Cc3ccccc3Cl)Cc3sccc32)cc1` (centres unmarked) [derivative n°10, 6-o.Chlorobenzyl-4-p.tolyl-4,5,6,7-tetrahydrothieno[2,3-c]pyridine]: the inhibition at 100 mg/kg in assay [1] (setting [11]) worked out at 65%; in assay [3], 96%. Moreover, the inhibition in vivo at 100 mg/kg in assay [2] (setting [5]) was determined as 38%; in assay [2] (setting [6]) it was 45%; in assay [2] (setting [7]), 48%; in assay [2] (setting [8]) it was 52%; in assay [4] (setting [9]), 53%; in assay [4] (setting [10]), 60%.
As for `Clc1ccccc1CN1Cc2sccc2C(c2ccccc2)C1` (centres unmarked) [derivative n°11, 6-o.Chlorobenzyl-4-phenyl-4,5,6,7-tetrahydrothieno[2,3-c]pyridine], the results for the inhibition at 100 mg/kg in assay [1] (setting [11]) and in assay [3] were 62.8% and 91.2%, respectively. The inhibition in vivo at 100 mg/kg in assay [2] (setting [5]) was 39%; in assay [2] (setting [6]), 45%; in assay [2] (setting [7]), 49%; in assay [2] (setting [8]) it was 55%; in assay [4] (setting [9]), 51%; in assay [4] (setting [10]), 58%.
On to `c1ccc(CN2Cc3sccc3C(c3ccccc3)C2)cc1` (centres unmarked) [derivative n°12, 6-Benzyl-4-phenyl-4,5,6,7-tetrahydro-thieno[2,3-c]pyridine], for which the figures for the inhibition at 100 mg/kg in assay [1] (setting [11]) and in assay [3] were 63.7% and 93.3%, respectively. Besides, the inhibition in vivo at 100 mg/kg is 47% in assay [2] (setting [5]); 53% in assay [2] (setting [6]); 57% in assay [2] (setting [7]); 60% in assay [2] (setting [8]); 47% in assay [4] (setting [9]); 55% in assay [4] (setting [10]).
`Fc1ccccc1CN1Cc2sccc2C(c2ccccc2)C1` (centres unmarked) [derivative n°13, 6-o.Fluorobenzyl-4-phenyl-4,5,6,7-tetrahydrothieno[2,3-c]pyridine]: the inhibition at 100 mg/kg was found to be 64.3% in assay [1] (setting [11]) and 94.8% in assay [3]. The inhibition in vivo at 100 mg/kg was found to be 46% in assay [2] (setting [5]); 51% in assay [2] (setting [6]); 55% in assay [2] (setting [7]); 57% in assay [2] (setting [8]); 43% in assay [4] (setting [9]); 50% in assay [4] (setting [10]).
For `COc1cc(CN2Cc3sccc3C(c3ccccc3)C2)cc(OC)c1OC` (centres unmarked) [derivative n°14, 4-Phenyl-6-(3,4,5-trimethoxy-benzyl)-4,5,6,7-tetrahydro-thieno[2,3-c]pyridine], the inhibition at 100 mg/kg in assay [1] (setting [11]) is 64.1%; in assay [3] it was 93.9%. Also, the inhibition in vivo at 100 mg/kg in assay [2] (setting [5]) amounted to 37%; in assay [2] (setting [6]) it was 44%; in assay [2] (setting [7]), 49%; in assay [2] (setting [8]), 54%; in assay [4] (setting [9]), 43%; in assay [4] (setting [10]), 52%.
For the compound `COC(=O)c1ccccc1CN1Cc2sccc2C(c2ccccc2)C1` (centres unmarked) [derivative n°15, 6-o.Methoxycarbonylbenzyl-4-phenyl-4,5,6,7-tetrahydro-thieno[2,3-c]pyridine], the figures for the inhibition at 100 mg/kg in assay [1] (setting [11]) and in assay [3] were 61.7% and 92.3%, respectively. For the same compound, the inhibition in vivo at 100 mg/kg in assay [2] (setting [5]) was determined as 39%; in assay [2] (setting [6]), 47%; in assay [2] (setting [7]), 50%; in assay [2] (setting [8]), 54%; in assay [4] (setting [9]), 54%; in assay [4] (setting [10]), 62%.
For `O=C(O)c1ccccc1CN1Cc2sccc2C(c2ccccc2)C1` (centres unmarked) [derivative n°16, 6-o.Carboxybenzyl-4-phenyl-4,5,6,7-tetrahydro-thieno[2,3-c]pyridine], the inhibition at 100 mg/kg in assay [1] (setting [11]) is 63.2%; in assay [3], 94.1%. Also, the inhibition in vivo at 100 mg/kg was found to be 39% in assay [2] (setting [5]); 45% in assay [2] (setting [6]); 50% in assay [2] (setting [7]); 52% in assay [2] (setting [8]); 49% in assay [4] (setting [9]); 56% in assay [4] (setting [10]).
